These results are taken from patent US20250230138A1, “COMPOUNDS HAVING A T-STRUCTURE FORMED BY AT LEAST FOUR CYCLES FOR USE IN THE TREATMENT OF CANCER AND OTHER INDICATIONS” (TheRas, Inc., priority 2022, published 2025).

Like-named read-outs stand apart in the source and are kept apart here.

In assay [1] the target is KRAS-PI3Kα interaction (KRAS-Q25A binding to avi-tagged full length PI3Kα) (Homo sapiens (Human), UniProt P42336). Put plainly: Disrupting KRAS-PI3Kα interaction by SPR inhibition assay. As to conditions: KRAS-Q25A at 20 μM, 25° C. The protocol: SPR binding experiments were collected on a Biacore 8K Instrument (Cytiva). Neutravidin (Pierce) was amine coupled to the carboxymethylated dextran surface of a CM5 sensor chip (Cytiva) using standard amine coupling chemistry. The CM5 chip surface was first activated with 0.1 M N-hydroxy succinimide and 0.4 M N-ethyl-N′-(3-dimethyl aminopropyl) carbodiimide at a flow rate of 20 μL/min using 20 mM HEPES pH 7.4, 150 mM NaCl as the running buffer. Next, neutravidin was diluted to 20 μg/mL in 10 mM sodium acetate (pH 4.5) and injected on all flow cells until a density of approximately 10,000 response units (RU) was immobilized. Activated amine groups were quenched with an injection of 1 M ethanolamine (pH 8.0). 300-500 RU of avi-tagged full length PI3Kα was captured on all flow cells in 20 mM HEPES pH 7.4, 150 mM NaCl, 5 mM MgCl2, 1 mM TCEP, 0.05% tween 20, 5% DMSO buffer. KRAS-Q25A at 20 μM was mixed with 8 concentrations of compound (50 nM-100 μM) and injected over the full-length PI3Kα at 30 μL/min and 25° C. Steady-state levels of KRAS binding were recorded and fit with a 4-parameter inhibition model to determine the IC50 values.
A general note: SPR reads the build-up and loss of mass on a sensor chip optically.

A further assay concerns pAKT in BT474 cells. As to the kind of experiment: Cell-based pAKT HTRF assay in BT474 cells. Put shortly: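 pAKT was measured by HTRF after a 4 hr compound exposure in BT474 cells (DMEM, 10% FBS, 0.25% DMSO), using 9 concentrations from 3 μM in 3-fold steps. Cell lysates were incubated with the Eu cryptate/d2 antibody pair at room temperature for 4 to 24 h. The plate was then read at 320 nm excitation and 615 nm emission.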
In general terms: Time-resolved FRET reads energy transfer from a long-lived donor to a nearby acceptor.

Assay [2] concerns pAKT in Tet-on KRAS G12D HeLa cells. Put plainly: Cell-based pAKT HTRF assay in Tet-on KRAS G12D HeLa cells. The settings on record: read-out: pAKT inhibition IC50 in Tet-on KRAS G12D HeLa cells. The method, then:
To determine the effectiveness of compounds in disrupting PIK3CA/KRAS signaling in cells, we implemented pAKT HTRF assay (Perkin-Elmer) in Tet-on KRAS G12D HeLa cells.
On Day 1, cells were seeded into 96-well plates at 2×10^4 cells/well in complete growth media (DMEM, 10% Tet-Screened FBS) supplemented with 200 ng/mL doxycycline.
On Day 2, cells were treated with compounds at 0.25% DMSO. The source plate was created with compounds diluted in media at 5-fold the final assay concentration. The compounds are run in a 9-point concentration curve starting at 75 μM, with a 3-fold dilution between concentrations. […] 20 μL was transferred onto the cell plates (final volume in wells was 100 μL). Plates were harvested after 30 min and 4 hr incubation by aspirating media and adding kit-supplied 1× supplemented lysis buffer to all wells (50 μL per well). This then changed to 4 hr only when compounds became covalent. Plates were then placed on a plate shaker and incubated at 850 rpm for an additional 30 min. The antibody mixture solution was prepared by diluting aliquoted d2 and Eu Cryptate antibodies 1:20 in kit supplied detection buffer, then mixed the diluted antibodies solutions (1:1 v:v). 4 μL of this solution was then added to a 384-well detection plate (Perkin Elmer; 6008230). Samples were homogenized by pipetting up and down and then transferred (16 μL of cell lysates) from the 96-well cell culture plate to two wells of the HTRF 384-well detection plate containing the antibody solution. Plates were centrifuged (524 g for 1 min) and allowed to incubate between 4 and 24 h at room temperature. The maximum signal is reached after 4 h incubation time and remains stable over a period of 24 hours. Therefore, readings can be made between 4 and 24 h of incubation. Plates were centrifuged again (524 g for 1 min), and analyzed on the EnVision plate reader using the following settings: Excitation 320 nm, Bandwidth […]; Emission 615 nm, Bandwidth […], Gain 100%, Flashes 100, Lag 60 μs.

Where [3] appears, read: BT474 cells, 4 hr incubation, Compounds 10-999, read-out: pAKT inhibition IC50 in BT474 cells.
[4] abbreviates: Homo sapiens, BT-474, BT474 cells, 4 hr incubation, Compounds 10-999, read-out: pAKT inhibition IC50 in BT474 cells.

KRAS-PI3Kα interaction (KRAS-Q25A binding to avi-tagged full length PI3Kα), sequence (P42336 whole entry, looked up, stated change not applied): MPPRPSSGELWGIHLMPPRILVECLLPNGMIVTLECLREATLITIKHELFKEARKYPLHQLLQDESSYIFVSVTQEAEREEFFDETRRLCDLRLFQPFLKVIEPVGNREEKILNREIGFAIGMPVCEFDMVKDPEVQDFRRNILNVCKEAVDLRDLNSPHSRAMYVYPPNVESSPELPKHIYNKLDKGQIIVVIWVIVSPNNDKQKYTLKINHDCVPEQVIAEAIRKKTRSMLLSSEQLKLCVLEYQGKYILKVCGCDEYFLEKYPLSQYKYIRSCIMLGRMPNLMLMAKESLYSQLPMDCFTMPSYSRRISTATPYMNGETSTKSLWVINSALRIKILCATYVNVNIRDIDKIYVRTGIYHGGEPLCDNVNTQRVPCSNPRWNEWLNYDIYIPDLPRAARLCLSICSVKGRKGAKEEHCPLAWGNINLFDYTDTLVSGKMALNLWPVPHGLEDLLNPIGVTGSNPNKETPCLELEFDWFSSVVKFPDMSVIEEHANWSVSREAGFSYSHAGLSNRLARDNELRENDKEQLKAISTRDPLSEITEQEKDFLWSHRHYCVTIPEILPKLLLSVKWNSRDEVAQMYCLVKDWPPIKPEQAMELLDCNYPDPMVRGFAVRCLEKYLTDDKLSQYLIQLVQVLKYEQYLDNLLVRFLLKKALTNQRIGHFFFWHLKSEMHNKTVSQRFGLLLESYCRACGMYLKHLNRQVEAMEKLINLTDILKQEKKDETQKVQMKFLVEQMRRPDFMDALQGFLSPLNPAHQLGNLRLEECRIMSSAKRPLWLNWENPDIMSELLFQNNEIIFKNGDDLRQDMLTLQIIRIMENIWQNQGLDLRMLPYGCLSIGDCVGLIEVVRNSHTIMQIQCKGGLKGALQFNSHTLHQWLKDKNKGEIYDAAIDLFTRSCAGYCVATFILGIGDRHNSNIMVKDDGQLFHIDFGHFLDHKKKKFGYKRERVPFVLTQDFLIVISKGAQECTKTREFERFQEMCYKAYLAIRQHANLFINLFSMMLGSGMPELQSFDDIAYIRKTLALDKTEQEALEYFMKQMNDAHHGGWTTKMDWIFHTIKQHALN
KRAS-PI3Kα interaction (KRAS-Q25A binding to avi-tagged full length PI3Kα), sequence (P27986 whole entry partner, looked up): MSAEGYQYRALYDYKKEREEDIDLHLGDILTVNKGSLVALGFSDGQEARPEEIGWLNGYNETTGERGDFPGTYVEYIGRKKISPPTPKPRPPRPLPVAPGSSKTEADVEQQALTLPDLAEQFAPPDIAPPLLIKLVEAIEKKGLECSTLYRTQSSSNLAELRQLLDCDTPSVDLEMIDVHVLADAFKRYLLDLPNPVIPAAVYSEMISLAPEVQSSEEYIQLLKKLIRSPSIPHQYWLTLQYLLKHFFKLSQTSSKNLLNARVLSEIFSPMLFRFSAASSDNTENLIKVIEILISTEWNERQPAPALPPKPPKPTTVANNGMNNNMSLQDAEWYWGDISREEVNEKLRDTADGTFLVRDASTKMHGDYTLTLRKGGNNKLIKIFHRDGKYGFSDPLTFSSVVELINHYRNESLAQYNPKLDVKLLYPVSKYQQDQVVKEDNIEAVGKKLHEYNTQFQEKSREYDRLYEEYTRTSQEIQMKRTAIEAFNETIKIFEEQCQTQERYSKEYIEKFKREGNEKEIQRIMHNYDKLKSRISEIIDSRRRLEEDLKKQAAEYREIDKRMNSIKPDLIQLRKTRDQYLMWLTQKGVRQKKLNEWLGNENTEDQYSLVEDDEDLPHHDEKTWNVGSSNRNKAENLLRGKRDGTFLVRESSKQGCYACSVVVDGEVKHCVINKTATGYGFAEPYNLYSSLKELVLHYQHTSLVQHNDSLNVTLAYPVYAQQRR

The term IC50 denotes the concentration at which inhibition is half-maximal. In the case of `C=CC(=O)N1CCCC(n2cc(-c3nc(-c4ccc5c(c4)CCNC5)c4ccsc4c3-c3ccc(F)cc3OCCOC)cn2)C1` (stereo not shown) [compound 31], the IC50 in assay [1] was under 5000 nM; in the assay with pAKT in BT474 cells (setting [3]), under 100 nM; in assay [2] (Tet-on KRAS G12D HeLa cells), under 1000 nM.
Regarding `C=CC(=O)Nc1cccc(-c2nc(-c3ccc4c(c3)CNC(=O)C4)c3ccsc3c2-c2ccc(F)cc2OCCOC)c1` [compound 51], the IC50 in assay [1] was 5000 to 25000 nM; in the assay with pAKT in BT474 cells (setting [3]), 100 to 1000 nM; in assay [2] (Tet-on KRAS G12D HeLa cells), under 1000 nM.
For the compound `C=CC(=O)Nc1cccc(-c2nc(-c3ccc4c(c3)CCNC4)c3ccsc3c2-c2ccc(F)cc2OCCOC)c1` [Compound 12, N-[3-[7-[4-fluoro-2-(2-methoxyethoxy)phenyl]-4-(1,2,3,4-tetrahydroisoquinolin-6-yl)thieno[3,2-c]pyridin-6-yl]phenyl]prop-2-enamide], the half-maximal inhibitory concentration (IC50) in assay [1] is under 5000 nM; with pAKT in BT474 cells (setting [4]) it was 100 to 1000 nM; in assay [2] (Homo sapiens, HeLa), 1000 to 10000 nM.
`C=CC(=O)N1CC[C@H](n2cc(-c3nc(-c4ccc5c(c4)CCNC5)c4ccsc4c3-c3ccc(F)cc3OCCOC)cn2)C1` [compound 47]: the results for the IC50 (in assay [1]; in the assay with pAKT in BT474 cells (setting [3]); in assay [2] (Tet-on KRAS G12D HeLa cells)) were 5000 to 25000 nM, under 100 nM and under 1000 nM, respectively.
`C=CC(=O)N1CCc2nc(-c3nc(-c4ccc5c(c4)CCNC5)c4ccsc4c3-c3ccc(F)cc3OCCOC)sc2C1` [Compound 58, 1-[2-[7-[4-fluoro-2-(2-methoxyethoxy)phenyl]-4-(1,2,3,4-tetrahydroisoquinolin-6-yl)thieno[3,2-c]pyridin-6-yl]-6,7-dihydro-4H-thiazolo[5,4-c]pyridin-5-yl]prop-2-en-1-one]: the IC50 in assay [1] was 5000 to 25000 nM; with pAKT in BT474 cells (Homo sapiens, BT-474, BT474, free fraction adjusted, read-out: in vitro BT474 pAKT free fraction adjusted IC50), 1440 nM; in the assay with pAKT in BT474 cells (Homo sapiens, BT-474, BT474 cell line, read-out: pAKT (IC50)), 34 nM; in the assay with pAKT in BT474 cells (setting [4]), under 100 nM.
Consider `C=CC(=O)N1CCc2ccc(-c3nc(-c4ccc5c(c4)CCNC5)c4ccsc4c3-c3ccc(F)cc3OCCOC)cc2C1` [compound 42], for which the IC50 in assay [1] is under 5000 nM; in the assay on pAKT in BT474 cells (setting [3]) it was under 100 nM; in assay [2] (Tet-on KRAS G12D HeLa cells), under 1000 nM.
In the case of `C=CC(=O)N1CC(n2cc(-c3nc(-c4ccc5c(c4)CCNC5)c4ccsc4c3-c3ccc(F)cc3OCCOC)cn2)C1` [Compound 44, 1-[3-[4-[7-[4-fluoro-2-(2-methoxyethoxy)phenyl]-4-(1,2,3,4-tetrahydroisoquinolin-6-yl)thieno[3,2-c]pyridin-6-yl]pyrazol-1-yl]azetidin-1-yl]prop-2-en-1-one], the IC50 is 5000 to 25000 nM in assay [1]; under 100 nM with pAKT in BT474 cells (setting [4]); under 1000 nM in assay [2] (Homo sapiens, HeLa).
